Source: patent US5137892A, “Quinoline, naphthyridine and pyridobenzoxazine derivatives” (Abbott Laboratories, priority 1990, dated 1992)
Values after ≈ are worked out from the molar mass of the structure shown.

Tests used:
Type in all cases: cell-based
[1] = test system: Pseudomonas aeruginosa K599/61; settings: P. aeruginosa K599/61; BHI agar dilution, 20-24 hours; unit assumed
Method: (§1) The activity of the compounds of the present invention was tested against a wide variety of bacteria using standard assay procedures. Minimum inhibitory concentrations (MICs) were determined by the agar dilution method, described below, using Brain Heart Infusion agar.
(§2) Twelve petri dishes were prepared, each containing successive aqueous 2-fold dilutions of the test compounds mixed with 10 mL of sterilized Brain Heart Infusion (BHI) agar. Each plate was inoculated with 100-fold (or 10-fold, for slow-growing strains such as Micrococcus and Streptococcus) dilutions of up to 32 different microorganisms using a Steers replicator block calibrated to deliver approximately 10^4 colony forming units (CFUs). The inoculated plates were incubated at about 35°-37° C. for approximately 20-24 hours. In addition, a control plate, using BHI agar containing no test compound, was prepared and incubated at the beginning and at the end of each test. Ciprofloxacin was used as the reference antibiotic.
(§3) The MIC was defined as the lowest concentration of test compound yielding no growth (a slight haze or sparsely isolated colonies at the inoculum spot as compared to the growth control contaning no test compound.

[2] = test system: Enterococcus faecium ATCC 8043; experiment: In Vitro Antibacterial Activity, agar dilution MIC; settings: E. faecium ATCC 8043; BHI agar dilution, 20-24 hours; unit assumed
Method: as §1, §2, §3

[3] = test system: Streptococcus pyogenes EES61; experiment: In Vitro Antibacterial Activity, agar dilution MIC; settings: S. pyogenes EES61; BHI agar dilution, 20-24 hours; unit assumed
Method: as §1, §2, §3

[4] = test system: Pseudomonas aeruginosa 2862; experiment: In Vitro Antibacterial Activity, agar dilution MIC; settings: P. aeruginosa 2862; BHI agar dilution, 20-24 hours; unit assumed
Method: as §1, §2, §3

[5] = test system: Streptococcus pyogenes 2548 INDUC; experiment: In Vitro Antibacterial Activity, agar dilution MIC; settings: S. pyogenes 2548 INDUC; BHI agar dilution, 20-24 hours; unit assumed
Method: as §1, §2, §3

[6] = test system: Pseudomonas cepacia 2961; experiment: In Vitro Antibacterial Activity, agar dilution MIC; settings: P. cepacia 2961; BHI agar dilution, 20-24 hours; unit assumed
Method: as §1, §2, §3

[7] = test system: Staphylococcus aureus A5177; experiment: In Vitro Antibacterial Activity, agar dilution MIC; settings: S. aureus A5177; BHI agar dilution, 20-24 hours; unit assumed
Method: as §1, §2, §3

[8] = test system: Pseudomonas aeruginosa A5007; experiment: In Vitro Antibacterial Activity, agar dilution MIC; settings: P. aeruginosa A5007; BHI agar dilution, 20-24 hours; unit assumed
Method: as §1, §2, §3

[9] = test system: Staphylococcus aureus NCTC 10649; experiment: In Vitro Antibacterial Activity, agar dilution MIC; settings: S. aureus NCTC 10649; BHI agar dilution, 20-24 hours; unit assumed
Method: as §1, §2, §3

[10] = test system: Escherichia coli DC-2; experiment: In Vitro Antibacterial Activity, agar dilution MIC; settings: E. coli DC-2; BHI agar dilution, 20-24 hours; unit assumed
Method: as §1, §2, §3

[11] = test system: Escherichia coli JUHL; experiment: In Vitro Antibacterial Activity, agar dilution MIC; settings: E. coli JUHL; BHI agar dilution, 20-24 hours; unit assumed
Method: as §1, §2, §3

[12] = test system: Klebsiella pneumoniae ATCC 8045; experiment: In Vitro Antibacterial Activity, agar dilution MIC; settings: K. pneumoniae ATCC 8045; BHI agar dilution, 20-24 hours; unit assumed
Method: as §1, §2, §3

[13] = test system: Staphylococcus aureus 642A; experiment: In Vitro Antibacterial Activity, agar dilution MIC; settings: S. aureus 642A; BHI agar dilution, 20-24 hours; unit assumed
Method: as §1, §2, §3

[14] = test system: Streptococcus pyogenes 930 CONST; experiment: In Vitro Antibacterial Activity, agar dilution MIC; settings: S. pyogenes 930 CONST; BHI agar dilution, 20-24 hours; unit assumed
Method: as §1, §2, §3

[15] = test system: Acinetobacter SP CMX 699; experiment: In Vitro Antibacterial Activity, agar dilution MIC; settings: BHI agar dilution, 20-24 hours, unit assumed
Method: as §1, §2, §3

[16] = test system: Staphylococcus aureus ATCC 6538P; experiment: In Vitro Antibacterial Activity, agar dilution MIC; settings: S. aureus ATCC 6538P; BHI agar dilution, 20-24 hours; unit assumed
Method: as §1, §2, §3

[17] = test system: Staphylococcus aureus 45; experiment: In Vitro Antibacterial Activity, agar dilution MIC; settings: S. aureus 45; BHI agar dilution, 20-24 hours; unit assumed
Method: as §1, §2, §3

[18] = test system: Streptococcus bovis A5169; experiment: In Vitro Antibacterial Activity, agar dilution MIC; settings: S. bovis A5169; BHI agar dilution, 20-24 hours; unit assumed
Method: as §1, §2, §3

[19] = test system: Pseudomonas aeruginosa K799/WT; experiment: In Vitro Antibacterial Activity, agar dilution MIC; settings: P. aeruginosa K799/WT; BHI agar dilution, 20-24 hours; unit assumed
Method: as §1, §2, §3

[20] = test system: Escherichia coli SS; experiment: In Vitro Antibacterial Activity, agar dilution MIC; settings: E. coli SS; BHI agar dilution, 20-24 hours; unit assumed
Method: as §1, §2, §3

[21] = test system: Enterobacter aerogenes ATCC 13048; experiment: In Vitro Antibacterial Activity, agar dilution MIC; settings: E. aerogenes ATCC 13048; BHI agar dilution, 20-24 hours; unit assumed
Method: as §1, §2, §3

[22] = test system: Staphylococcus epidermidis 3519; experiment: In Vitro Antibacterial Activity, agar dilution MIC; settings: S. epidermidis 3519; BHI agar dilution, 20-24 hours; unit assumed
Method: as §1, §2, §3

[23] = test system: Escherichia coli H560; experiment: In Vitro Antibacterial Activity, agar dilution MIC; settings: E. coli H560; BHI agar dilution, 20-24 hours; unit assumed
Method: as §1, §2, §3

[24] = test system: Pseudomonas aeruginosa 5263; experiment: In Vitro Antibacterial Activity, agar dilution MIC; settings: P. aeruginosa 5263; BHI agar dilution, 20-24 hours; unit assumed
Method: as §1, §2, §3

[25] = test system: Staphylococcus aureus A-5278; experiment: In Vitro Antibacterial Activity, agar dilution MIC; settings: S. aureus A-5278; BHI agar dilution, 20-24 hours; unit assumed
Method: as §1, §2, §3

[26] = test system: Escherichia coli KNK 437; experiment: In Vitro Antibacterial Activity, agar dilution MIC; settings: E. coli KNK 437; BHI agar dilution, 20-24 hours; unit assumed
Method: as §1, §2, §3

[27] = test system: Staphylococcus aureus 1775; experiment: In Vitro Antibacterial Activity, agar dilution MIC; settings: S. aureus 1775; BHI agar dilution, 20-24 hours; unit assumed
Method: as §1, §2, §3

[28] = test system: Pseudomonas aeruginosa BMH10; experiment: In Vitro Antibacterial Activity, agar dilution MIC; settings: P. aeruginosa BMH10; BHI agar dilution, 20-24 hours; unit assumed
Method: as §1, §2, §3

[29] = test system: Streptococcus agalactaciae CMX 508; experiment: In Vitro Antibacterial Activity, agar dilution MIC; settings: S. agalactaciae CMX 508; BHI agar dilution, 20-24 hours; unit assumed
Method: as §1, §2, §3

[30] = test system: Staphylococcus aureus CMX 553; experiment: In Vitro Antibacterial Activity, agar dilution MIC; settings: S. aureus CMX 553; BHI agar dilution, 20-24 hours; unit assumed
Method: as §1, §2, §3

[31] = test system: Providencia stuartii CMX 640; experiment: In Vitro Antibacterial Activity, agar dilution MIC; settings: P. stuartii CMX 640; BHI agar dilution, 20-24 hours; unit assumed
Method: as §1, §2, §3

[32] = test system: Micrococcus luteus ATCC 9341; experiment: In Vitro Antibacterial Activity, agar dilution MIC; settings: M. luteus ATCC 9341; BHI agar dilution, 20-24 hours; unit assumed
Method: as §1, §2, §3

[33] = test system: Micrococcus luteus ATCC 4698; experiment: In Vitro Antibacterial Activity, agar dilution MIC; settings: M. luteus ATCC 4698; BHI agar dilution, 20-24 hours; unit assumed
Method: as §1, §2, §3

In the case of `O=C(O)c1cn(C2CC2)c2cc(N3CCNCC3)c(F)cc2c1=O` [Cipro, Ciprofloxacin, reference compound], the MIC values [1] is reported as 0.02 µg/mL (≈ 0.0604 µM), the MIC values [2] is reported as 0.39 µg/mL (≈ 1.18 µM) and the MIC values [3] is reported as 0.39 µg/mL (≈ 1.18 µM). It also gave an MIC values [4] of 25 µg/mL (≈ 75.4 µM), an MIC values [5] of 0.39 µg/mL (≈ 1.18 µM) and an MIC values [6] of 3.1 µg/mL (≈ 9.36 µM). It also gave an MIC values [7] of 0.39 µg/mL (≈ 1.18 µM), an MIC values [8] of 0.1 µg/mL (≈ 0.302 µM) and an MIC values [9] of 0.39 µg/mL (≈ 1.18 µM). For the same molecule, the MIC values [10] was 0.2 µg/mL (≈ 0.604 µM), the MIC values [11] was 0.02 µg/mL (≈ 0.0604 µM) and the MIC values [12] was 0.02 µg/mL (≈ 0.0604 µM). It also gave an MIC values [13] of 0.39 µg/mL (≈ 1.18 µM), an MIC values [14] of 0.78 µg/mL (≈ 2.35 µM) and an MIC values [15] of 0.39 µg/mL (≈ 1.18 µM). The MIC values [16] was 0.2 µg/mL (≈ 0.604 µM), the MIC values [17] was 0.78 µg/mL (≈ 2.35 µM) and the MIC values [18] was 1.56 µg/mL (≈ 4.71 µM). It also gave an MIC values [19] of 0.1 µg/mL (≈ 0.302 µM), an MIC values [20] of 0.005 µg/mL (≈ 0.0151 µM) and an MIC values [21] of 0.05 µg/mL (≈ 0.151 µM). For the same molecule, the MIC values [22] was 0.2 µg/mL (≈ 0.604 µM), the MIC values [23] was 0.01 µg/mL (≈ 0.0302 µM) and the MIC values [24] was 12.5 µg/mL (≈ 37.7 µM). For the same molecule, the MIC values [25] was 0.39 µg/mL (≈ 1.18 µM), the MIC values [26] was 0.2 µg/mL (≈ 0.604 µM) and the MIC values [27] was greater than 100 µg/mL. The MIC values [28] was 0.05 µg/mL (≈ 0.151 µM), the MIC values [29] was 0.39 µg/mL (≈ 1.18 µM) and the MIC values [30] was 0.78 µg/mL (≈ 2.35 µM). The MIC values [31] was 0.78 µg/mL (≈ 2.35 µM), the MIC values [32] was 1.56 µg/mL (≈ 4.71 µM) and the MIC values [33] was 0.78 µg/mL (≈ 2.35 µM).
